Patent US10766928B2, “Targeted conformationally-constrained kinked endosomal disrupting peptides” (priority 2012, dated 2020)
≈ marks a conversion by molar mass, not a printed value. Like-named read-outs stand apart in the source and are kept apart here. Non-standard residues stand in square brackets, D forms with d. Residues, ends and D or L forms follow the SMILES beside them. *: point of attachment. Pentanoyl(5-NH-cholesteryl) = CC(C)CCC[C@@H](C)[C@H]1CC[C@H]2[C@@H]3CC=C4C[C@@H](NCCCCC(=O)*)CC[C@]4(C)[C@H]3CC[C@]12C; Cholesteryloxycarbonyl = CC(C)CCC[C@@H](C)[C@H]1CC[C@H]2[C@@H]3CC=C4C[C@@H](OC(=O)*)CC[C@]4(C)[C@H]3CC[C@]12C; PEG3 = NCCOCCOCCOCCC(=O)O; Aib = CC(C)(N)C(=O)O; Ahx = NCCCCCC(=O)O; βAla = NCCC(=O)O

Legend:
[1] = system: endosomes of Jurkat lymphocytes; test: Endosome disruption in Jurkat lymphocytes: release of carboxyfluorescein from disulfide probe Compound 2, flow cytometry; details: for Efficacy (% of max. 1): % change in cellular fluorescence relative to maximal response of Compound 1 (100%); for Efficacy (% of max. 1) / Efficacy (% of 1): Jurkat; for Efficacy (% of 1): % of the effect of compound 1, calculated span of dose-response curve, ± standard deviation; for Endosome disruption activity (in words): Jurkat endosome disruption assay
Method: The effects of the compounds of the invention on human Juikat leukemia cells were evaluated using flow cytometry-based assays of potency, efficacy, and toxicity. […] Analysis of flow cytometry data by non-linear regression was used to determine IC50 values for potency with the efficacy expressed as a percentage. […] Dose-dependent effects on cellular viability after 48 h at 37° C. in culture were also measured by flow cytometry.
The # represents the compound number in accordance with Tables A, B, and C. Concentrations of compound stock solutions were determined by absorbance measurements at 280 nm. Efficacy was determined as % change in cellular fluorescence relative to the maximal response of Compound 1, defined as 100%. Potencies and efficacies in Jurkat lymphocytes were measured by flow cytometry after treatment of cells with the compounds listed and the fluorescent probe Compound 2 (2.5 μM) for 14 hours. Toxicity to this cell line was determined by flow cytometry analysis of light scattering and counterstaining with PI after treatment for 48 h at 37° C. in culture. […] N.D., not determined.
Cells were treated with fluorescent molecular probe Compound 2 (2.5 μM) and endosome disruptors for 14 hours at 37° C. Enhanced cellular fluorescence resulting from release of the pH-sensitive fluorophore Compound 3 into the cytoplasm was quantified by flow cytometry.
Natural amino acids are represented by single letter codes. Codes for non-standard elements are as follows: Ch1: (3β-Cholest-5-en-3-yl-ammonio)pentanoyl; Ch2: (Cholester-3-yl)oxy-βAla-βAla; X: ε-Ahx; U: Aib; PB: Pacific Blue fluorophore. O: 3-(2-(2-(2-aminoethoxy)ethoxy)ethoxy)propanyl.

[2] = Thermodynamic solubility in PBS (pH 7.4); format: physicochemical; details: phosphate buffered saline
Description: Values in parentheses represent 95% confidence intervals. N.D., not determined.
Measurements represent duplicate or more replicates, with active peptides subjected to multiple replicates. ND: not determined. The peptide was non-toxic and soluble in cell culture medium at this concentration.

[3] = read-out: Potency, Table 2, EC50 ± standard deviation, Jurkat lymphocytes, disulfide-linked fluorescent probe (2.5 μM), 14 h
[4] = pH 7.4, Table 3, PBS pH 7.4, 24 h at 22° C., read-out: Solubility

Molecule	Efficacy (% of max. 1) ([1]; Table 1, 14 hours)	Efficacy (% of 1) ([1]; Table 2, 14 h) [%]	EC50 [1, 3] [µM]	solubility thermodynamic at 24 h [2, 4] [µM]	EC50 ([1]; 14 h) [µM]	also measured
CC(C)[C@H](NC(=O)[C@@H]1CCCN1C(=O)[C@@H]1CCCN1C(=O)[C@H](Cc1c[nH]c2ccccc12)NC(=O)[C@H](Cc1ccc(O)cc1)NC(=O)[C@H](C)NC(=O)[C@H](Cc1c[nH]c2ccccc12)NC(=O)[C@H](Cc1c[nH]c2ccccc12)NC(=O)C(C)(C)NC(=O)C(C)(C)NC(=O)C(C)(C)NC(=O)C(C)(C)N)C(=O)N[C@@H](C)C(N)=O [Compound 43] (H-[Aib][Aib][Aib][Aib]WWAYWPPVA-NH2)	64%	57 ± 7	9 ± 3	40 ± 2 (≈ 60.6 µg/mL)	–	EC50 ([1]; read-out: Potency (EC50), Table 1, Jurkat lymphocytes, probe Compound 2 (2.5 μM), 14 hours, 95% confidence interval in neighbouring cell): 10 µM
CC(C)[C@H](NC(=O)[C@@H](NC(=O)[C@@H]1CCCN1C(=O)[C@@H]1CCCN1C(=O)[C@H](C)NC(=O)[C@H](Cc1ccc(O)cc1)NC(=O)[C@H](C)NC(=O)[C@H](Cc1c[nH]c2ccccc12)NC(=O)[C@H](Cc1c[nH]c2ccccc12)NC(=O)C(C)(C)NC(=O)C(C)(C)NC(=O)C(C)(C)NC(=O)C(C)(C)N)C(C)C)C(N)=O [Compound 48] (H-[Aib][Aib][Aib][Aib]WWAYAPPVV-NH2)	<<50%	<10	–	86 ± 5 (≈ 123 µg/mL)	–	–
Ac-AAAWWAYWPPVA-NH2 [Compound 40]	<<50%	–	> 15	41 ± 2	–	–
CC(C)[C@H](NC(=O)[C@@H](NC(=O)[C@@H]1CCCN1C(=O)[C@@H]1CCCN1C(=O)[C@H](Cc1ccc(O)cc1)NC(=O)[C@H](Cc1ccc(O)cc1)NC(=O)[C@H](C)NC(=O)[C@H](Cc1ccc(O)cc1)NC(=O)[C@H](Cc1ccc(O)cc1)NC(=O)[C@H](C)NC(=O)[C@H](Cc1ccc(O)cc1)NC(=O)[C@H](Cc1ccc(O)cc1)NC(=O)C(C)(C)NC(=O)C(C)(C)NC(=O)C(C)(C)NC(=O)C(C)(C)N)C(C)C)C(N)=O [Compound 85] (H-[Aib][Aib][Aib][Aib]YYAYYAYYPPVV-NH2)	–	>125	4 ± 1	–	–	–
CC(C)CCC[C@@H](C)[C@H]1CC[C@H]2[C@@H]3CC=C4C[C@@H](OC(=O)NCCC(=O)NCCC(=O)N[C@@H](CCC(=O)O)C(=O)N[C@@H](CCC(=O)O)C(=O)NCCOCCOCCOCCC(=O)NCCOCCOCCOCCC(=O)NC(C)(C)C(=O)NC(C)(C)C(=O)NC(C)(C)C(=O)NC(C)(C)C(=O)N[C@@H](Cc5c[nH]c6ccccc56)C(=O)N[C@@H](Cc5ccc(O)cc5)C(=O)N[C@@H](C)C(=O)N[C@@H](Cc5c[nH]c6ccccc56)C(=O)N[C@@H](Cc5ccc(O)cc5)C(=O)N[C@@H](C)C(=O)N[C@@H](Cc5c[nH]c6ccccc56)C(=O)N[C@@H](Cc5ccc(O)cc5)C(=O)N5CCC[C@H]5C(=O)N5CCC[C@H]5C(=O)N[C@H](C(=O)N[C@H](C(N)=O)C(C)C)C(C)C)CC[C@]4(C)[C@H]3CC[C@]12C [Compound 84, Ch2-EEOOUUUUWYAWYAWYPPVV-NH2] ({Cholesteryloxycarbonyl-βAla-βAla}-EE[PEG3][PEG3][Aib][Aib][Aib][Aib]WYAWYAWYPPVV-NH2)	–	–	–	21 ± 1 (≈ 66.4 µg/mL)	–	–
Ac-SSAWWSYWPPVA-NH2 [Compound 39, reference compound]	<<50%	<2	–	137 ± 8	–	Endosome disruption activity (in words) [1]: devoid of biological activity; solubility thermodynamic at 24 h ([2]; pH 7.4, Table 1, PBS pH 7.4, 24 hours at 22° C., ±S.D., read-out: Solubility (aq.)): 173 ± 11 µM
CC(C)CCC[C@@H](C)[C@H]1CC[C@H]2[C@@H]3CC=C4C[C@@H](NCCCCC(=O)NCCC(=O)N[C@@H](CCC(=O)O)C(=O)N[C@@H](CCC(=O)O)C(=O)NCCCCCC(=O)NC(C)(C)C(=O)NC(C)(C)C(=O)NC(C)(C)C(=O)N[C@@H](Cc5c[nH]c6ccccc56)C(=O)N[C@@H](Cc5c[nH]c6ccccc56)C(=O)N[C@@H](C)C(=O)N[C@@H](Cc5ccc(O)cc5)C(=O)N[C@@H](Cc5c[nH]c6ccccc56)C(=O)N[C@@H](C)C(=O)N5CCC[C@H]5C(=O)N[C@H](C(=O)N[C@@H](C)C(N)=O)C(C)C)CC[C@]4(C)[C@H]3CC[C@]12C [Compound 16, R = BEEXUUUWWAYWAPVA-CONH2] ({Pentanoyl(5-NH-cholesteryl)-βAla}-EE[Ahx][Aib][Aib][Aib]WWAYWAPVA-NH2)	–	–	–	–	1.6	–
CC(C)[C@H](NC(=O)[C@@H](NC(=O)[C@H](C)NC(=O)[C@@H]1CCCN1C(=O)[C@H](Cc1c[nH]c2ccccc12)NC(=O)[C@H](Cc1ccc(O)cc1)NC(=O)[C@H](C)NC(=O)[C@H](Cc1c[nH]c2ccccc12)NC(=O)[C@H](Cc1c[nH]c2ccccc12)NC(=O)C(C)(C)NC(=O)C(C)(C)NC(=O)C(C)(C)NC(=O)C(C)(C)N)C(C)C)C(N)=O [Compound 50] (H-[Aib][Aib][Aib][Aib]WWAYWPAVV-NH2)	71%	54 ± 3	9 ± 3	22 ± 2 (≈ 33.4 µg/mL)	–	Endosome disruption activity (in words) [1]: substantial activity
CC(C)[C@H](NC(=O)[C@@H](NC(=O)[C@@H]1CCCN1C(=O)[C@@H]1CCCN1C(=O)[C@H](Cc1c[nH]c2ccccc12)NC(=O)[C@H](Cc1ccc(O)cc1)NC(=O)[C@H](C)NC(=O)[C@H](C)NC(=O)[C@H](Cc1c[nH]c2ccccc12)NC(=O)C(C)(C)NC(=O)C(C)(C)NC(=O)C(C)(C)NC(=O)C(C)(C)N)C(C)C)C(N)=O [Compound 46] (H-[Aib][Aib][Aib][Aib]WAAYWPPVV-NH2)	<<50%	<10	–	86 ± 5 (≈ 123 µg/mL)	–	–
CC(C)CCC[C@@H](C)[C@H]1CC[C@H]2[C@@H]3CC=C4C[C@@H](NCCCCC(=O)NCCC(=O)N[C@@H](CCC(=O)O)C(=O)N[C@@H](CCC(=O)O)C(=O)NCCCCCC(=O)N[C@@H](CO)C(=O)N[C@@H](CO)C(=O)N[C@@H](C)C(=O)N[C@@H](Cc5c[nH]c6ccccc56)C(=O)N[C@@H](Cc5c[nH]c6ccccc56)C(=O)N[C@@H](CO)C(=O)N[C@@H](Cc5ccc(O)cc5)C(=O)N[C@@H](Cc5c[nH]c6ccccc56)C(=O)N5CCC[C@H]5C(=O)N5CCC[C@H]5C(=O)N[C@H](C(=O)N[C@@H](C)C(N)=O)C(C)C)CC[C@]4(C)[C@H]3CC[C@]12C [Compound 6, R = BEEXSSAWWSYWPPVA-CONH2] ({Pentanoyl(5-NH-cholesteryl)-βAla}-EE[Ahx]SSAWWSYWPPVA-NH2)	–	–	–	–	3.5	–
CC(C)CCC[C@@H](C)[C@H]1CC[C@H]2[C@@H]3CC=C4C[C@@H](NCCCCC(=O)NCCC(=O)N[C@@H](CCC(=O)O)C(=O)N[C@@H](CCC(=O)O)C(=O)NCCCCCC(=O)NC(C)(C)C(=O)NC(C)(C)C(=O)NC(C)(C)C(=O)N[C@@H](Cc5c[nH]c6ccccc56)C(=O)N[C@@H](Cc5c[nH]c6ccccc56)C(=O)N[C@@H](C)C(=O)N[C@@H](Cc5ccc(O)cc5)C(=O)N[C@@H](Cc5c[nH]c6ccccc56)C(=O)N5CCC[C@H]5C(=O)N[C@@H](C)C(=O)N[C@H](C(=O)N[C@@H](C)C(N)=O)C(C)C)CC[C@]4(C)[C@H]3CC[C@]12C [Compound 17, R = BEEXUUUWWAYWPAVA-CONH2] ({Pentanoyl(5-NH-cholesteryl)-βAla}-EE[Ahx][Aib][Aib][Aib]WWAYWPAVA-NH2)	–	–	–	–	2.1	–
CC(C)CCC[C@@H](C)[C@H]1CC[C@H]2[C@@H]3CC=C4C[C@@H](NCCCCC(=O)NCCC(=O)N[C@@H](CCC(=O)O)C(=O)N[C@@H](CCC(=O)O)C(=O)NCCCCCC(=O)NCCCCCC(=O)NC(C)(C)C(=O)NC(C)(C)C(=O)NC(C)(C)C(=O)NC(C)(C)C(=O)N[C@@H](Cc5ccccc5)C(=O)N[C@@H](Cc5ccccc5)C(=O)N[C@@H](C)C(=O)N[C@@H](Cc5ccccc5)C(=O)N[C@@H](Cc5ccccc5)C(=O)N5CCC[C@H]5C(=O)N5CCC[C@H]5C(=O)N[C@H](C(=O)N[C@@H](C)C(N)=O)C(C)C)CC[C@]4(C)[C@H]3CC[C@]12C [Compound 22, R = BEEXXUUUUFFAFFPPVA-CONH2] ({Pentanoyl(5-NH-cholesteryl)-βAla}-EE[Ahx][Ahx][Aib][Aib][Aib][Aib]FFAFFPPVA-NH2)	–	–	–	–	> 10	–
Ch1-EEOOUUUUYYYYPPVV-NH2 [Compound 86]	–	125 ± 10	0.08 ± 0.01	–	–	–
CC(C)CCC[C@@H](C)[C@H]1CC[C@H]2[C@@H]3CC=C4C[C@@H](NCCCCC(=O)NCCC(=O)N[C@@H](CCC(=O)O)C(=O)N[C@@H](CCC(=O)O)C(=O)NCCCCCC(=O)NC(C)(C)C(=O)NC(C)(C)C(=O)NC(C)(C)C(=O)N[C@@H](Cc5c[nH]c6ccccc56)C(=O)N[C@@H](Cc5c[nH]c6ccccc56)C(=O)N[C@@H](C)C(=O)N[C@@H](C)C(=O)N[C@@H](Cc5c[nH]c6ccccc56)C(=O)N5CCC[C@H]5C(=O)N5CCC[C@H]5C(=O)N[C@H](C(=O)N[C@@H](C)C(N)=O)C(C)C)CC[C@]4(C)[C@H]3CC[C@]12C [Compound 14, R = BEEXUUUWWAAWPPVA-CONH2] ({Pentanoyl(5-NH-cholesteryl)-βAla}-EE[Ahx][Aib][Aib][Aib]WWAAWPPVA-NH2)	–	–	–	–	1.2	–
